Measured values published in patent publication US20250270191A1, “QUINOLONE BCL6 BIFUNCTIONAL DEGRADERS” (Treeline Biosciences, Inc., priority 2022, published 2025).

Biological target: T1, Human BCL6 protein (N-terminal HiBiT tagged BCL6 in HT1080 cells) (Homo sapiens, UniProt P41182+Q96SW2)
T1 construct: Human BCL6 protein coding open reading frame; expressed in transfected cells; host or cells: HT1080 (ATCC CCL-121), stably transduced with lentivirus pLV-UBC-N-HiBiT-BCL6-PGK-puro
Assay: HiBiT based BCL6 degradation assay
Type: cell-based
Conditions: HT1080 cells expressing N-terminal HiBiT tagged BCL6; 5 hours incubation; BCL6 degradation normalized with DMSO control
Text: Human BCL6 protein coding open reading frame fused with N-terminal HiBiT coding sequence was synthesized from Integrated DNA Technologies (IDT). Next, the N-HiBiT-BCL6 sequence was cloned into pLV-UBC-PGK-Puro, a lentivirus plasmid purchased from Vectorbuilder, to generate pLV-UBC-N-HiBiT-BCL6-PGK-puro. Lentiviral particles were generated from Lenti-X™ 293T cells (Clontech) by co-transfection of pLV-UBC-N-HiBiT-BCL6-PGK-puro plasmids and lentiviral packaging plasmid mix (Cellecta). HT1080 [HT1080] (ATCC CCL-121) cells were infected with the lentivirus, and HT1080 cells stably integrated with the lentiviral vectors were established by incubation with 1 μg/mL puromycin (Thermofisher).
HT1080 cells expressing N-terminal HiBiT tagged BCL6 were dispensed into a 384-well plate pre-spotted with compounds at varying concentrations. Five thousand cells were seeded into each well in 40 μL of RPMI 1640 media plus 10% Fetal Bovine Serum (10082-147, Thermofisher). After 5 hours of incubation at 37° C. with 5% CO2, 30 μL of the NANO-GLO® HiBiT Lytic Detection System working solution (Promega) was added to each well and incubated at room temperature for 15 min. After incubation, luminescence was read on a PHERAstar FSX Plate Reader (BMG). BCL6 degradation at each indicated concentration was normalized with DMSO control. The BCL6 degradation curves were plotted using a four-parameter logistic model.

**Q.** For `CNC(=O)COc1cc2cc(Nc3nc(N4CCC[C@H](CCNc5ccc6c(C7CCC(=O)NC7=O)nn(C)c6c5)C4)ncc3Cl)ccc2n(C)c1=O` (single isomer, unassigned) [Compound 290a], which “Ymin (5 hr)” value is on record?
**A.** ++ (50% < Ymin ≤ 70%)

**Q.** For `CNC(=O)COc1cc2cc(Nc3nc(N4CCC[C@@H](CCNc5ccc6c(C7CCC(=O)NC7=O)nn(C)c6c5)C4)ncc3Cl)ccc2n(C)c1=O` (single isomer, unassigned) [Compound 290b], which “Ymin (5 hr)” value is on record?
**A.** +++ (25% < Ymin ≤ 50%)

**Q.** Which “Ymin (5 hr)” value does the source give for `CNC(=O)COc1cc2cc(Nc3nc(N4CCC[C@H](CCNc5cccc6c(C7CCC(=O)NC7=O)nn(C)c56)C4)ncc3Cl)ccc2n(C)c1=O` (single isomer, unassigned) [Compound 294b] here?
**A.** ++ (50% < Ymin ≤ 70%)

**Q.** With `CNC(=O)COc1cc2cc(Nc3nc(N4CCN([C@@H](C)C5CCN(c6cccc7c(C8CCC(=O)NC8=O)nn(C)c67)CC5)CC4)ncc3Cl)ccc2n(C)c1=O` (single isomer, unassigned) [Compound 307a] as the compound, how does the “Ymin (5 hr)” value read?
**A.** ++++ (Ymin ≤ 25%)

**Q.** For `CNC(=O)COc1cc2cc(Nc3nc(N4CCN([C@H](C)C5CCN(c6cccc7c(C8CCC(=O)NC8=O)nn(C)c67)CC5)CC4)ncc3Cl)ccc2n(C)c1=O` (single isomer, unassigned) [Compound 307b], which “Ymin (5 hr)” value is on record?
**A.** +++ (25% < Ymin ≤ 50%)

**Q.** How did the “Ymin (5 hr)” value turn out when `CNC(=O)COc1cc2cc(Nc3nc(N4CCC[C@@H](CCNc5cccc6c(C7CCC(=O)NC7=O)nn(C)c56)C4)ncc3Cl)ccc2n(C)c1=O` (stereo in doubt) [Compound 294a, rel-2-((6-((5-chloro-2-((3S)-3-(2-((3-(2,6-dioxopiperidin-3-yl)-1-methyl-1H-indazol-7-yl)amino)ethyl)piperidin-1-yl)pyrimidin-4-yl)amino)-1-methyl-2-oxo-1,2-dihydroquinolin-3-yl)oxy)-N-methylacetamide] was run?
**A.** ++ (50% < Ymin ≤ 70%)

**Q.** How did the “Ymin (5 hr)” value turn out when `CNC(=O)COc1cc2cc(Nc3nc(N4CCN(CC5CCC6(CC5)CN(c5ccc7c(C8CCC(=O)NC8=O)nn(C)c7c5)C6)CC4)ncc3Cl)ccc2n(C)c1=O` (centres unmarked) [Compound 103, 2-((6-((5-chloro-2-(4-((2-(3-(2,6-dioxopiperidin-3-yl)-1-methyl-1H-indazol-6-yl)-2-azaspiro[3.5]nonan-7-yl)methyl)piperazin-1-yl)pyrimidin-4-yl)amino)-1-methyl-2-oxo-1,2-dihydroquinolin-3-yl)oxy)-N-methylacetamide] was run?
**A.** ++++ (Ymin ≤ 25%)

**Q.** `CNC(=O)COc1cc2cc(Nc3nc(N4CCN(CC5CCC6(CC5)CN(c5cccc7c(C8CCC(=O)NC8=O)nn(C)c57)C6)CC4)ncc3Cl)ccc2n(C)c1=O` (centres unmarked) [Compound 104, 2-((6-((5-chloro-2-(4-((2-(3-(2,6-dioxopiperidin-3-yl)-1-methyl-1H-indazol-7-yl)-2-azaspiro[3.5]nonan-7-yl)methyl)piperazin-1-yl)pyrimidin-4-yl)amino)-1-methyl-2-oxo-1,2-dihydroquinolin-3-yl)oxy)-N-methylacetamide] was tested. Which “Ymin (5 hr)” value did it give?
**A.** +++ (25% < Ymin ≤ 50%)

**Q.** How did the “Ymin (5 hr)” value turn out when `CNC(=O)COc1cc2cc(Nc3nc(N4CCC(CNC(=O)c5cccc(C6CCC(=O)NC6=O)c5)CC4)ncc3Cl)ccc2n(C)c1=O` (centres unmarked) [Compound 105, N-((1-(5-chloro-4-((1-methyl-3-(2-(methylamino)-2-oxoethoxy)-2-oxo-1,2-dihydroquinolin-6-yl)amino)pyrimidin-2-yl)piperidin-4-yl)methyl)-3-(2,6-dioxopiperidin-3-yl)benzamide] was run?
**A.** ++ (50% < Ymin ≤ 70%)

**Q.** How did the “Ymin (5 hr)” value turn out when `CNC(=O)COc1cc2cc(Nc3nc(N4CCC[C@H](CNc5ccc(C6CCC(=O)NC6=O)cc5)C4)ncc3Cl)ccc2n(C)c1=O` (stereo partly drawn) [Compound 106a, 2-((6-((5-chloro-2-((3R)-3-(((4-(2,6-dioxopiperidin-3-yl)phenyl)amino)methyl)piperidin-1-yl)pyrimidin-4-yl)amino)-1-methyl-2-oxo-1,2-dihydroquinolin-3-yl)oxy)-N-methylacetamide] was run?
**A.** ++ (50% < Ymin ≤ 70%)

**Q.** How did the “Ymin (5 hr)” value turn out when `CNC(=O)COc1cc2cc(Nc3nc(N4CCC[C@@H](CNc5ccc(C6CCC(=O)NC6=O)cc5)C4)ncc3Cl)ccc2n(C)c1=O` (stereo partly drawn) [Compound 106b, 2-((6-((5-chloro-2-((3S)-3-(((4-(2,6-dioxopiperidin-3-yl)phenyl)amino)methyl)piperidin-1-yl)pyrimidin-4-yl)amino)-1-methyl-2-oxo-1,2-dihydroquinolin-3-yl)oxy)-N-methylacetamide] was run?
**A.** ++ (50% < Ymin ≤ 70%)

**Q.** How did the “Ymin (5 hr)” value turn out when `CNC(=O)COc1cc2cc(Nc3nc(N4CCN(CC5CCN(c6cccc7c(C8CCC(=O)NC8=O)nn(C)c67)CC5)CC4)ncc3Cl)ccc2n(C(C)C)c1=O` (centres unmarked) [Compound 107, 2-((6-((5-chloro-2-(4-((1-(3-(2,6-dioxopiperidin-3-yl)-1-methyl-1H-indazol-7-yl)piperidin-4-yl)methyl)piperazin-1-yl)pyrimidin-4-yl)amino)-1-isopropyl-2-oxo-1,2-dihydroquinolin-3-yl)oxy)-N-methylacetamide] was run?
**A.** ++++ (Ymin ≤ 25%)

**Q.** With `CNC(=O)COc1cc2cc(Nc3nc(N4CCN(CC5CCN(c6ccc7c(C8CCC(=O)NC8=O)nn(C)c7c6)CC5)CC4)ncc3Cl)ccc2n(C(C)C)c1=O` (centres unmarked) [Compound 108, 2-((6-((5-chloro-2-(4-((1-(3-(2,6-dioxopiperidin-3-yl)-1-methyl-1H-indazol-6-yl)piperidin-4-yl)methyl)piperazin-1-yl)pyrimidin-4-yl)amino)-1-isopropyl-2-oxo-1,2-dihydroquinolin-3-yl)oxy)-N-methylacetamide] as the compound, how does the “Ymin (5 hr)” value read?
**A.** +++ (25% < Ymin ≤ 50%)

**Q.** With `CNC(=O)COc1cc2cc(Nc3nc(N4CCC[C@@H]4CNc4cccc(C5CCC(=O)NC5=O)c4)ncc3Cl)ccc2n(C)c1=O` (stereo partly drawn) [Compound 260a, 2-((6-((5-chloro-2-((2R)-2-(((3-(2,6-dioxopiperidin-3-yl)phenyl)amino)methyl)pyrrolidin-1-yl)pyrimidin-4-yl)amino)-1-methyl-2-oxo-1,2-dihydroquinolin-3-yl)oxy)-N-methylacetamide] as the compound, how does the “Ymin (5 hr)” value read?
**A.** ++ (50% < Ymin ≤ 70%)

**Q.** For `CNC(=O)COc1cc2cc(Nc3nc(N4CCC[C@H]4CNc4cccc(C5CCC(=O)NC5=O)c4)ncc3Cl)ccc2n(C)c1=O` (stereo partly drawn) [Compound 260b, 2-((6-((5-chloro-2-((2S)-2-(((3-(2,6-dioxopiperidin-3-yl)phenyl)amino)methyl)pyrrolidin-1-yl)pyrimidin-4-yl)amino)-1-methyl-2-oxo-1,2-dihydroquinolin-3-yl)oxy)-N-methylacetamide], which “Ymin (5 hr)” value is on record?
**A.** + (Ymin > 70%)

**Q.** With `CNC(=O)COc1cc2cc(Nc3nc(N4CCC[C@@H](CNc5ccc6c(C7CCC(=O)NC7=O)nn(C)c6c5)C4)ncc3Cl)ccc2n(C)c1=O` (stereo partly drawn) [Compound 261a, 2-((6-((5-chloro-2-((3S)-3-(((3-(2,6-dioxopiperidin-3-yl)-1-methyl-1H-indazol-6-yl)amino)methyl)piperidin-1-yl)pyrimidin-4-yl)amino)-1-methyl-2-oxo-1,2-dihydroquinolin-3-yl)oxy)-N-methylacetamide] as the compound, how does the “Ymin (5 hr)” value read?
**A.** ++ (50% < Ymin ≤ 70%)

**Q.** With `CNC(=O)COc1cc2cc(Nc3nc(N4CCC[C@H](CNc5ccc6c(C7CCC(=O)NC7=O)nn(C)c6c5)C4)ncc3Cl)ccc2n(C)c1=O` (stereo partly drawn) [Compound 261b, 2-((6-((5-chloro-2-((3R)-3-(((3-(2,6-dioxopiperidin-3-yl)-1-methyl-1H-indazol-6-yl)amino)methyl)piperidin-1-yl)pyrimidin-4-yl)amino)-1-methyl-2-oxo-1,2-dihydroquinolin-3-yl)oxy)-N-methylacetamide] as the compound, how does the “Ymin (5 hr)” value read?
**A.** +++ (25% < Ymin ≤ 50%)

**Q.** With `CNC(=O)COc1cc2cc(Nc3nc(NC[C@H]4CC[C@@H](Nc5cccc(C6CCC(=O)NC6=O)c5)CC4)ncc3Cl)ccc2n(C)c1=O` (some centres unmarked) [Compound 262a, 2-((6-((5-chloro-2-((((1s,4s)-4-((3-(2,6-dioxopiperidin-3-yl)phenyl)amino)cyclohexyl)methyl)amino)pyrimidin-4-yl)amino)-1-methyl-2-oxo-1,2-dihydroquinolin-3-yl)oxy)-N-methylacetamide] as the compound, how does the “Ymin (5 hr)” value read?
**A.** ++ (50% < Ymin ≤ 70%)

**Q.** `CNC(=O)COc1cc2cc(Nc3nc(NC[C@H]4CC[C@H](Nc5cccc(C6CCC(=O)NC6=O)c5)CC4)ncc3Cl)ccc2n(C)c1=O` (some centres unmarked) [Compound 262b, 2-((6-((5-chloro-2-((((1r,4r)-4-((3-(2,6-dioxopiperidin-3-yl)phenyl)amino)cyclohexyl)methyl)amino)pyrimidin-4-yl)amino)-1-methyl-2-oxo-1,2-dihydroquinolin-3-yl)oxy)-N-methylacetamide] was tested. Which “Ymin (5 hr)” value did it give?
**A.** ++ (50% < Ymin ≤ 70%)

**Q.** Which “Ymin (5 hr)” value does the source give for `CNC(=O)COc1cc2cc(Nc3nc(N4CCC(CCNc5cccc(C6CCC(=O)NC6=O)c5)CC4)ncc3Cl)ccc2n(C)c1=O` (centres unmarked) [Compound 263, 2-((6-((5-chloro-2-(4-(2-((3-(2,6-dioxopiperidin-3-yl)phenyl)amino)ethyl)piperidin-1-yl)pyrimidin-4-yl)amino)-1-methyl-2-oxo-1,2-dihydroquinolin-3-yl)oxy)-N-methylacetamide] here?
**A.** ++ (50% < Ymin ≤ 70%)
